Like-named read-outs stand apart in the source and are kept apart here. Marks after values point to notes of the source that are not given here.
Molecular target: T1, F508delCFTR (Homo sapiens, UniProt P13569, DEL508-508)
T1 construct: expressed in transfected cells; host or cells: CFBE41o- human lung derived epithelial cells (CFBE41o-F508delCFTR-HRP), doxycycline-inducible
Test: Cell Surface Expression-Horse Radish Peroxidase (CSE-HRP) Assay;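 on EC50 (with co-corrector): co-corrector chromenyl benzoic acid corrector at 2 or 3 µM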;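 on Maximum % activity (without co-corrector): % of on-plate positive control chromenyl benzoic acid corrector at 2 or 3 µM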
Assay type: cell-based
Settings: for Maximum % activity (with co-corrector) / Emax: maximum at any tested concentration; for Emax: read-out: Maximum % activity (without co-corrector)
Outline: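 Corrector compounds were given as 8-point 3-fold series from 20 or 30 μM, with or without a 2 μM co-corrector, for 18-24 h at 33 °C. Surface HRP was read by luminol luminescence as % of positive control; variable-Hill-slope sigmoidal fitting gave EC50 from triplicate plates.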

[1] = test compound with co-corrector
[2] = test compound with co-corrector, read-out: EC50 (with co-corrector)
[3] = test compound without co-corrector
[4] = test compound without co-corrector, read-out: EC50 (without co-corrector)
[5] = test compound alone, without co-corrector, read-out: EC50 (without co-corrector)
[6] = with co-corrector, read-out: EC50 (with co-corrector)

T1 sequence (P13569 with tags, fused parts or gaps DEL508-508): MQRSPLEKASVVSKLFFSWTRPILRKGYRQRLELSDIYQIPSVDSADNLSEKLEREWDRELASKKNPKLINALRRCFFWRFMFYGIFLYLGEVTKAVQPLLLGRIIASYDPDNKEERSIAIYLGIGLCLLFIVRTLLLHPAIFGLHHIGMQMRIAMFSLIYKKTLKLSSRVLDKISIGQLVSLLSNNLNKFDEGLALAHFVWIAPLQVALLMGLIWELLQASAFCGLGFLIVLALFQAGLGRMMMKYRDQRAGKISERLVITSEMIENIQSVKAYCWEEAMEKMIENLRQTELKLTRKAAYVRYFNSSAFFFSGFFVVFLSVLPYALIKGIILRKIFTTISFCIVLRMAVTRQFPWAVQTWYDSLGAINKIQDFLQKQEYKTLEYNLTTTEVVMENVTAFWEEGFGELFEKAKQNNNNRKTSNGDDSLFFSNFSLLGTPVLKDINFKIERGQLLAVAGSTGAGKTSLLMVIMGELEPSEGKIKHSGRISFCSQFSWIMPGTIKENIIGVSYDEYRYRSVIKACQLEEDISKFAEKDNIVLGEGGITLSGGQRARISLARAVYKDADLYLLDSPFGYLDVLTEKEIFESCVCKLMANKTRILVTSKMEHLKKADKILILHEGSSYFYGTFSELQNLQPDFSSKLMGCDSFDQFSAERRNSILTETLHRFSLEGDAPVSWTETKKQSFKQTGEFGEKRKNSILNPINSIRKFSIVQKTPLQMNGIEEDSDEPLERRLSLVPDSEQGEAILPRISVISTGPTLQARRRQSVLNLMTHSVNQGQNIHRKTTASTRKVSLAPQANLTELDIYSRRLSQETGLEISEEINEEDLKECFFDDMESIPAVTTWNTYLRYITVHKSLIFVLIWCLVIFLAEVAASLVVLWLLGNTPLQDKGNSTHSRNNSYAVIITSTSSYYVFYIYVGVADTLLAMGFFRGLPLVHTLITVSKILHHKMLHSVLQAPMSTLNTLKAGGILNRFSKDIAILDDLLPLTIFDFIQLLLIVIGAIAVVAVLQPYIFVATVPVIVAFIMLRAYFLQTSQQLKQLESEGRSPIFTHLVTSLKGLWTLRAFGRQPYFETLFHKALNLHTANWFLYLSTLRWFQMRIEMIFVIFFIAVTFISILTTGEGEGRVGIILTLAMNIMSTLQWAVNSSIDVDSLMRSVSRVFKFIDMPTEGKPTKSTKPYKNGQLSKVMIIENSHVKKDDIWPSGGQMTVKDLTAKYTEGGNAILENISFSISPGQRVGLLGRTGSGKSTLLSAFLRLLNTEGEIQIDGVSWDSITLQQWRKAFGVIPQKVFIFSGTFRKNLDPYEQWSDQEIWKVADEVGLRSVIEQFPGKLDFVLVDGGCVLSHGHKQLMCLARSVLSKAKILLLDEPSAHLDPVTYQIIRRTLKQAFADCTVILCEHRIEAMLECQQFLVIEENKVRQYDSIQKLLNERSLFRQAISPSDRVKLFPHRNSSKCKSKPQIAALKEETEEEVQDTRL

Row | Maximum % activity (with co-corrector) [1] | EC50 [2] [µM] | Emax [3] [%] | EC50 [4] [µM] | EC50 [5] [µM] | Maximum % activity (with co-corrector) (with co-corrector) | EC50 [6] [µM] | Emax (without co-corrector) [%] | EC50 (without co-corrector) [3] | Compound
1 | +++ (≥350) | 3 to 10 | > 150 | 3 to 10 |  |  |  |  |  | CCc1cnc(N2CCC(OC)CC2)c(C2(C(=O)NS(=O)(=O)c3cccc4ncccc34)CC2)c1 [GII-57, 1-[5-ethyl-2-(4-methoxypiperidin-1-yl)pyridin-3-yl]-N-(quinoline-5-sulfonyl)cyclopropane-1-carboxamide]
2 |  |  |  |  | > 10 | +++ (≥350) | 3 to 10 | > 150 |  | O=C(NS(=O)(=O)c1cccc2ccccc12)C1(c2ccc3c(c2)OC(F)(F)O3)CC1 [Example III-91, 1-(2,2-difluoro-2H-1,3-benzodioxol-5-yl)-N-(naphthalene-1-sulfonyl)cyclopropane-1-carboxamide]
3 |  |  |  |  | > 10 | + (<150) | > 10 | < 50 |  | CN(C(=O)C1(c2ccc(Cl)cc2Cl)CC1)S(=O)(=O)c1ccc(Cl)cc1 [Example III-19, N-(4-chlorobenzene-1-sulfonyl)-1-(2,4-dichlorophenyl)-N-methylcyclopropane-1-carboxamide]
4 |  |  |  |  | 3 to 10 | +++ (≥350) | < 3 | > 150 |  | Cc1cnc(OCC(C)C)c(C2(C(=O)NS(=O)(=O)c3cccc4[nH]ncc34)CC2)c1 [Example III-130, N-(1H-indazole-4-sulfonyl)-1-[5-methyl-2-(2-methylpropoxy)pyridin-3-yl]cyclopropane-1-carboxamide]
5 |  |  |  |  | 3 to 10 | +++ (≥350) | 3 to 10 | > 150 |  | COc1ncc(C(F)(F)F)cc1C1(C(=O)NS(=O)(=O)c2cccc3cnn(C)c23)CC1 [Example III-97, 1-[2-methoxy-5-(trifluoromethyl)pyridin-3-yl]-N-(1-methyl-1H-indazole-7-sulfonyl)cyclopropane-1-carboxamide]
6 |  |  |  |  | 3 to 10 | ++ (≥150 and <350) | < 3 | < 50 |  | O=C(NS(=O)(=O)c1ccccc1OC(F)(F)F)C1(c2ccc(Cl)cc2Cl)CC1 [Example III-13, 1-(2,4-dichlorophenyl)-N-[2-(trifluoromethoxy)benzene-1-sulfonyl]cyclopropane-1-carboxamide]
7 | +++ (≥350) | 3 to 10 | 50 to 150 |  |  |  |  |  | ++^a | Cc1cnc(N(C)C)cc1C1(C(=O)NS(=O)(=O)c2cccc3ncccc23)CC1 [GII-11, 1-[2-(dimethylamino)-5-methylpyridin-4-yl]-N-(quinoline-5-sulfonyl)cyclopropane-1-carboxamide]
8 |  |  |  |  | > 10 | + (<150) | > 10 | < 50 |  | O=C(NS(=O)(=O)Cc1ccccc1)C1(c2cccc(Cl)c2)CC1 [Example III-109, 1-(3-chlorophenyl)-N-(phenylmethanesulfonyl)cyclopropane-1-carboxamide]
9 |  |  |  |  | > 10 | + (<150) | > 10 | < 50 |  | O=C(O)c1ccccc1S(=O)(=O)NC(=O)C1(c2ccc(Cl)cc2Cl)CC1 [Example III-67]
10 | +++ (≥350) | 3 to 10 | > 150 | 3 to 10 |  |  |  |  |  | COCCOc1cnc(OC)cc1C1(C(=O)NS(=O)(=O)c2cccc3[nH]ccc23)CC1 [GII-45, N-(1H-indole-4-sulfonyl)-1-[2-methoxy-5-(2-methoxyethoxy)pyridin-4-yl]cyclopropane-1-carboxamide]
11 |  |  |  |  | > 10 | + (<150) | > 10 | < 50 |  | CCCS(=O)(=O)NC(=O)C1(c2cccc(OC)c2)CCOCC1 [Example III-119, 4-(3-methoxyphenyl)-N-(propane-1-sulfonyl)oxane-4-carboxamide]
12 |  |  |  |  | > 10 | ++ (≥150 and <350) | 3 to 10 | < 50 |  | COC(=O)c1ccc(Cl)cc1S(=O)(=O)NC(=O)C1(c2ccc(Cl)cc2Cl)CC1 [Example III-66, methyl 4-chloro-2-{[l-(2,4-dichlorophenyl)cyclopropane-1-carbonyl]sulfamoyl}benzoate]
13 |  |  |  |  | 3 to 10 | +++ (≥350) | 3 to 10 | 50 to 150 |  | COc1ccc(C)nc1C1(C(=O)NS(=O)(=O)c2cccc3ncccc23)CC1 [Example III-124, 1-(3-methoxy-6-methylpyridin-2-yl)-N-(quinoline-5-sulfonyl)cyclopropane-1-carboxamide]

Further lines, the compound ahead of its results:

Row | Compound | Maximum % activity (with co-corrector) [1] | EC50 [2] [µM] | Emax [3] [%] | EC50 [4] [µM] | EC50 [5] [µM] | Maximum % activity (with co-corrector) (with co-corrector) | EC50 [6] [µM] | Emax (without co-corrector) [%] | EC50 (without co-corrector) [3]
14 | CCc1cnc(OCC(C)C)c(C2(C(=O)NS(=O)(=O)c3cccc4ncccc34)CC2)c1 [Example GI-45, 1-[5-ethyl-2-(2-methylpropoxy)pyridin-3-yl]-N-(quinoline-5-sulfonyl)cyclopropane-1-carboxamide] | +++ (≥350) | < 3 | > 150 | < 3 |  |  |  |  | 
15 | O=C(NS(=O)(=O)c1cccc2[nH]ccc12)C1(c2cc(C3CCC3)cnc2OCC2CC2)CC1 [Example GI-98, 1-[5-cyclobutyl-2-(cyclopropylmethoxy)pyridin-3-yl]-N-(1H-indole-4-sulfonyl)cyclopropane-1-carboxamide] | +++ (≥350) | < 3 | > 150 | < 3 |  |  |  |  | 
16 | CCOc1ccc(C(C)(C)COC)cc1C1(C(=O)NS(=O)(=O)c2cccc3nc(C)ccc23)CC1 [II-105] |  |  |  |  | < 3 | +++ (≥350) | < 3 | > 150 | 
17 | CCc1ccc(OC)c(C2(C(=O)NS(=O)(=O)c3cccc4[nH]ncc34)CC2)c1 [II-72] |  |  |  |  | < 3 | +++ (≥350) | < 3 | > 150 | 
18 | COCC1(c2ccc(OC)c(C3(C(=O)NS(=O)(=O)c4cccc5nc(N)ccc45)CC3)c2)CC1 [II-82] |  |  |  |  | 3 to 10 | +++ (≥350) | < 3 | > 150 | 
19 | Cc1ccc(OC(C)C)c(C2(C(=O)NS(=O)(=O)c3cccc4ncccc34)CC2)c1 [Example I-77, 1-{5-methyl-2-[(propan-2-yl)oxy]phenyl}-N-(quinoline-5-sulfonyl)cyclopropane-1-carboxamide] |  |  |  |  | < 3 | +++ (≥350) | < 3 | > 150 | 
20 | Cc1ccc(O[C@@H]2CCOC2)c(C2(C(=O)NS(=O)(=O)c3cccc4ncccc34)CC2)c1 [Example I-122, 1-(5-methyl-2-{[(3R)-oxolan-3-yl]oxy}phenyl)-N-(quinoline-5-sulfonyl)cyclopropane-1-carboxamide] |  |  |  |  | < 3 | +++ (≥350) | < 3 | > 150 | 
21 | CC(C)COc1ncc(C2CCC2)cc1C1(C(=O)NS(=O)(=O)c2cccc3ncccc23)CC1 [Example GI-51, 1-[5-cyclobutyl-2-(2-methylpropoxy)pyridin-3-yl]-N-(quinoline-5-sulfonyl)cyclopropane-1-carboxamide] | +++ (≥350) | < 3 | > 150 | < 3 |  |  |  |  | 
22 | COc1ccc(OC(F)F)cc1C1(C(=O)NS(=O)(=O)c2cccc3ncccc23)CC1 [Example I-65, 1-[5-(difluoromethoxy)-2-methoxyphenyl]-N-(quinoline-5-sulfonyl)cyclopropane-1-carboxamide] |  |  |  |  | 3 to 10 | +++ (≥350) | < 3 | > 150 | 
23 | CCOc1cccc(OC)c1C1(C(=O)NS(=O)(=O)c2cccc3ncccc23)CC1 [Example I-45, 1-(2-ethoxy-6-methoxyphenyl)-N-(quinoline-5-sulfonyl)cyclopropane-1-carboxamide] |  |  |  |  | < 3 | +++ (≥350) | < 3 | > 150 | 
24 | CCc1cnc(OCC(C)C)c(C2(C(=O)NS(=O)(=O)c3cccc4nc(N)ccc34)CC2)c1 [Example I-98, N-(2-aminoquinoline-5-sulfonyl)-1-[5-ethyl-2-(2-methylpropoxy)pyridin-3-yl]cyclopropane-1-carboxamide] |  |  |  |  | < 3 | +++ (≥350) | < 3 | > 150 | 
25 | CCc1cnc(OC(C)C)c(C2(C(=O)NS(=O)(=O)c3cccc4[nH]ccc34)CC2)c1 [Example GI-41, 1-{5-ethyl-2-[(propan-2-yl)oxy]pyridin-3-yl}-N-(1H-indole-4-sulfonyl)cyclopropane-1-carboxamide] | +++ (≥350) | < 3 | > 150 | < 3 |  |  |  |  | 
26 | COc1ccc(C(C)C)cc1C1(C(=O)NS(=O)(=O)c2cccc3nc(C)ccc23)CC1 [Example I-71, 1-[2-methoxy-5-(propan-2-yl)phenyl]-N-(2-methylquinoline-5-sulfonyl)cyclopropane-1-carboxamide] |  |  |  |  | < 3 | +++ (≥350) | < 3 | > 150 | 
27 | COc1ccc(C)cc1C1(C(=O)NS(=O)(=O)c2cccc3ncccc23)CC1 [Example I-44, 1-(2-methoxy-5-methylphenyl)-N-(quinoline-5-sulfonyl)cyclopropane-1-carboxamide] |  |  |  |  | < 3 | +++ (≥350) | < 3 | > 150 | 

— patent US10829473B2, “Modulators of the cystic fibrosis transmembrane conductance regulator protein and methods of use” (AbbVie Overseas S.Á.R.L., priority 2017, dated 2020)
